What was measured:
[1] = Body weight of the xenotransplant group suffering from parvocellular pulmonary carcinoma; assay type: in vivo, Nu/Nu-Swiss mice
Protocol: The tumor sizes were determined in two directions and the relative tumor growth was calculated.
(C): Average body weights of the group suffering from parvocellular pulmonary carcinoma. The standard deviations were less than 3%.

[2] = system: Colon carcinoma cells (SW707); test: Anti-tumoral effect on a human colon carcinoma in naked mice; assay type: in vivo, Nu/Nu mice, strain NMRI; conditions: SW707 tumors about 10 mm, FIG. 2
Source text: b) Anti-Tumoral Effect of a Compound According to Example 1 on a Human Colon Carcinoma in Naked Mice Colon carcinoma cells (SW707) were implanted under the skin of 6-week-old Nu/Nu mice, strain NMRI (5×10^6 cells in common salt solution).

[3] = system: Bronchial carcinoma cells (SCLC); test: Anti-tumoral effect on a human parvocellular bronchial carcinoma in naked mice; assay type: in vivo, Nu/Nu mice, strain NMRI; conditions: 10 mg/kg intravenously, SCLC tumors about 8 mm, FIG. 1
Protocol: a) Anti-Tumoral Effect on a Human Parvocellular Bronchial Carcinoma in Naked Mice
Bronchial carcinoma cells (SCLC) were implanted under the skin of six-week-old Nu/Nu mice, strain NMRI (5×10^6 cells in 0.1 ml common salt solution). The tumors had reached a size of about 8 mm after two weeks. Then, five animals each were treated intravenously with either 0.2 ml common salt solution/[…]/1% acetone (control group) or with 10 mg/kg compound according to Example 1 in common salt solution/1% BSA/1% acetone (treated group). The tumor growth was controlled daily. The values are shown in enclosed FIG. 1.

[4] = system: SW707 cells of a colorectal carcinoma; test: Antitumoral effect on human xenotransplants, SW707; assay type: in vivo, Nu/Nu-Swiss mice; conditions: single i.p. injection 10 mg/kg, FIG. 4B
HeLa cells = test: pH dependence of the effectiveness of cytostatic agents (live cell count, trypan blue); assay type: cell-based, Human; conditions: pH 7.4 vs pH 6.8, 24 hours, FIG. 3
Protocol: The number of live cells was determined after vital staining using trypan blue in Neubauer's counting chamber.

[5] = system: Human H10 cells of a parvocellular bronchial carcinoma; test: Antitumoral effect on human xenotransplants, H10; assay type: in vivo, Nu/Nu-Swiss mice; conditions: single i.p. injection 10 mg/kg, FIG. 4A
cell lines = test: Dependence of the cytotoxicity on the pH value, all cell lines of the table; assay type: cell-based; conditions: pH 6.8 vs pH 7.4, cell lines of the table
Protocol: Cells were plated in Linbro dishes or plates and, after 4 hours, the cells were fed with a medium which included either 2.2 g/l (pH 7.4) or 0.85 g/l (pH 6.8) NaHCO3.

Compound	weight loss ([1]; mouse, in vivo, ip, 10 mg/kg)	tumor growth ([2]; 7.5 mg/kg intravenously (treated group I))	tumor size [3]	effect on tumor growth [4]	pH dependence of effectiveness (HeLa cells)	tumor size as compared to the control group [5]	weight loss ([1]; day 3 after the treatment, 10 mg/kg i.p., FIG. 4C)	weight loss ([1]; day 6 after the treatment, 10 mg/kg i.p., FIG. 4C)	tumor growth ([2]; 10 mg/kg intravenously (treated group II))	pH effect on IC50 (cell lines)
CCOC1=[S+][Pt-2]2([S]1)[S]C(OCC)=[S+]2 [Example 1, bis-[O-ethyldithiocarbanato]Platinum (II)]	no weight loss	tumor growth was slowed down	decreased in size	tumor growth could be prevented	effective maximum in the slightly acidic range	–	–	–	–	–
N.N.[Cl][Pt][Cl] [cisplatin]	–	–	–	no effect	better effects in the alkaline range	50%	12%	13%	constant tumor growth	poorer with pH 6.8 than with pH 7.4 or there was no detectable pH effect

Reference: patent publication US6881751B2, “Medicament containing platinum complex compounds and the use thereof” (Ruprecht Karls Universitat, priority 1998, dated 2005)
